# Results published in publication PMC9949698, “Visible-Light-Controlled Histone Deacetylase Inhibitors for Targeted Cancer Therapy” (Journal of Medicinal Chemistry, 2023).
# Where two headings read alike, the source gives them in different places.
# Tests used:
# HeLa cells = assay: HeLa cell viability, MTS assay, dark or preillumination; type: cell-based; settings: for IC50: Homo sapiens, HeLa; for IC50(dark)/IC50(light): Table 5
# Experimental: We then proceeded to evaluate the effect of the compounds in a viability assay against HeLa cells.
# (§1) HeLa, MCF7, and HT29 cells were maintained in adherent cultures in DMEM supplemented with 10% FBS. KG1 cells were maintained in a suspension culture in IMDM supplemented with 20% FBS.
# Stock solutions of the compounds were heated to 60 or 80 °C to obtain solutions with the maximum amount of the trans isomer (dark). […] The solutions were then serially diluted with DMEM to give 20 times the desired final concentration, maintaining DMSO at 10%.
# Cells were seeded in 96-well black flat bottom plates with a clear bottom at a density of 5 × 10^3 cells/well (HeLa) or 1 × 10^4 cells/well (MCF7, HT29, and KG1), in a volume of 95 μL.
# (§2) Viability of HeLa, MCF7, and […] cells was determined with a CellTiter 96 assay (Promega), according to the manufacturer’s instructions. Briefly, 20 μL of CellTiter 96 reagent was added to each well, the plates were incubated at 37 °C for 2 h, and the absorbance at 490 nm was recorded. Viability is expressed as a percentage with respect to the nontreated cells.
# [1] = UV–vis spectra and optimal isomerization wavelengths; type: physicochemical
# Experimental: Ultraviolet–visible (UV–vis) spectra were recorded using a Tecan Spark 20M Multimode Microplate reader. Samples (200 μL of compound solution/well) were prepared at […] in DMSO. Samples were measured between 300 and 800 nm with 2 nm fixed intervals in 96-well transparent plates. Illumination at different wavelengths was performed for 2 min using 96-well LED array plates (LEDA Teleopto) placed below the samples. […] Potencies were measured using a Thorlabs PM100D power energy meter connected with a standard photodiode power sensor (S120VC).
# [2] = cited from earlier work
# [3] = UV–vis spectra and optimal isomerization wavelengths; type: physicochemical; settings: 25–50 μM in DMSO, using CoolLed at 217 mW/cm^2 instead of Teleopto plates
# human recombinant HDAC1 [4] = molecular target: T1, human recombinant HDAC1 (Homo sapiens, UniProt Q13547); assay: Fluorogenic assay with human recombinant HDAC1, dark or illumination; type: biochemical; settings: enzyme incubated 6 h with or without preillumination, activity assessed every hour
# T1 construct: purchased BPS Bioscience
# human recombinant HDAC1 [5] = molecular target: T1, human recombinant HDAC1; assay: as above; type: biochemical
# Experimental: To study the inhibition of HDAC enzymes by the compounds, we used a fluorogenic assay with human recombinant HDAC1.[32] The enzyme was incubated with an acetylated substrate and each inhibitor for 1 h at room temperature, under either dark or light conditions. We opted for illumination throughout the incubation period to maintain the maximum proportion of cis under light conditions. […] Then, the deacetylated substrate generated a fluorescent coumarin after incubation of the mixture with trypsin at 37 °C for 20 min.
# Stock solutions of the compounds were diluted to 1 mM in DMSO and then heated to 60 or 80 °C to obtain solutions with the maximum amount of the trans isomer (dark). […] The 1 mM solutions were then serially diluted with HDAC buffer to 10 times the desired concentration, maintaining DMSO at 10%.
# In control wells without the compound, inhibitor, or enzyme, HDAC buffer was added instead. […] Then, 50 μL of the stop solution was added and the plates were incubated at 37 °C for 20 min in the dark. Fluorescence was measured at a λem of 460 nm and a λex of 380 nm. Enzyme activity is expressed as a percentage with respect to the nontreated cells, after subtracting the blank (well with no enzyme and no compound).
# [6] = E/Z composition under light or temperature conditions by HPLC; type: physicochemical
# MCF7 cells = assay: MCF7 cell viability, MTS assay, 50 μM; type: cell-based; settings: 48 h; for effect on viability when preilluminated: preilluminated (380 or 550 nm)
# Experimental: (§3) HDACis have been proposed as a potential therapeutic strategy against cancer stem cells (CSCs).[39],[40] We selected three cell lines that have a strong CSC phenotype (HT29,[41],[42] MCF7[43]−[45] and KG1[46]) and tested the best compounds at 50 μM under dark and illumination conditions.
# as §1
# (§4) Stock solutions of the compounds were heated to 60 or 80 °C to obtain solutions with the maximum amount of the trans isomer (dark). For the “light” solutions, the stock solutions were illuminated with 96-well LED array plates for 3 min at the maximum potency. The solutions were then serially diluted with DMEM to give 20 times the desired final concentration, maintaining DMSO at 10%.
# (§5) Cells were seeded in 96-well black flat bottom plates with a clear bottom at a density of 5 × 10^3 cells/well (HeLa) or 1 × 10^4 cells/well (MCF7, HT29, and KG1), in a volume of 95 μL. After 24 h, 5 μL of compound solutions (20×) were added. Cells were incubated for 48 h.
# as §2
# KG1 cells = assay: KG1 cell viability, CellTiterGlo assay, 50 μM; type: cell-based; settings: 48 h; for effect on viability when preilluminated: preilluminated (380 or 550 nm)
# Experimental: as §3, §1, §4, §5
# Viability of KG1 cells was determined with a CellTiter-Glo (Promega) assay, according to the manufacturer’s instructions. Briefly, 100 μL of CellTiter-Glo reagent was added to each well, the plates were kept at room temperature for 10 min, and the luminescence was recorded. Viability is expressed as a percentage with respect to the nontreated cells.
# HT29 cells = assay: HT29 cell viability, MTS assay, 50 μM; type: cell-based; settings: 48 h; for effect on viability when preilluminated: preilluminated (380 or 550 nm)
# Experimental: as §3, §1, §4, §5, §2
# [7] = UV–vis spectra at 25–50 μM in DMSO (Table 1)
# [8] = dark, 48 h, read-out: IC50 dark (concentration that reduces cell viability by half)
# [9] = UV–vis at 25–50 μM in DMSO, Teleopto plates (Table 1)
# [10] = preillumination 550 nm, 48 h, read-out: IC50 light (concentration that reduces cell viability by half)
# [11] = UV–vis spectra at 25–100 μM in DMSO (Table 3)
# [12] = continuous illumination 550 nm (Table 4), read-out: IC50 light
# [13] = dark (Table 4), read-out: IC50 dark
# [14] = HPLC at isosbestic point (290–336 nm), 100 μM in DMSO after illumination with λcis (Table 3)
# [15] = HPLC at isosbestic point (290–336 nm), 100 μM in DMSO after illumination with λtrans (Table 3)
# T1 sequence (Q13547 whole entry): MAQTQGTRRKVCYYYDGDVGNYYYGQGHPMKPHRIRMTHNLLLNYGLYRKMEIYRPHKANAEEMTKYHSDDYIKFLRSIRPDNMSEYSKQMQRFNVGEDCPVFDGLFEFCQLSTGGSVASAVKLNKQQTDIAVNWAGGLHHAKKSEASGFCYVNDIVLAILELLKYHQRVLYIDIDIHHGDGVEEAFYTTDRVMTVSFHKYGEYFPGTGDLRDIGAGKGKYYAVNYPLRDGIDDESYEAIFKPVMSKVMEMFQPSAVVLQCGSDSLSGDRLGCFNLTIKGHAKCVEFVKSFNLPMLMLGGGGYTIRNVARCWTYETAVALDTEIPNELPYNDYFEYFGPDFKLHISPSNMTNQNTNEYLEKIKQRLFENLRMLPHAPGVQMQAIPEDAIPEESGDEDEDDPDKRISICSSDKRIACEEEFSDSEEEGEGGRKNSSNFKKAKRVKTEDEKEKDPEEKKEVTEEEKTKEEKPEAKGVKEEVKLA
Compound,"λmax trans [1, 7]",IC50 (HeLa cells; [8]),IC50(dark)/IC50(light) (HeLa cells),IC50 (HeLa cells; [10]),cell death under dark vs light conditions (HeLa cells; in words),effect on viability in the dark (MCF7 cells),effect on viability when preilluminated (MCF7 cells),"λcis [1, 11]","λmax cis [1, 11]","λmax trans [1, 11]","λtrans [1, 11]",IC50(dark)/IC50(light) (human recombinant HDAC1 [5]; Table 4),IC50 (human recombinant HDAC1 [5]; [12]),IC50 (human recombinant HDAC1 [5]; [13]),effect on viability in the dark (KG1 cells),effect on viability when preilluminated (KG1 cells),"% cis at λcis [6, 14]","% trans at λtrans [6, 15]",effect on viability in the dark (HT29 cells),effect on viability when preilluminated (HT29 cells),other results
CN(C)c1ccc(/N=N/c2ccc(C(=O)Nc3ccccc3N)cc2)cc1 [Compound 2],450 nm,–,–,–,–,–,–,–,–,–,–,–,–,–,–,–,–,–,–,–,activity under dark and illumination conditions (HeLa cells; in words): inactive; activation wavelength [2]: 470 nm; half-life ([2]; room temperature in PBS): 60 μs; λcis [3]: 460^5 nm; λtrans [3]: 580^5 nm
"COc1ccc(/N=N/c2ccc(/C=C/C(=O)NO)cc2)cc1 [Compound 1, reference compound]",378 nm,~12 µM,≈1,–,–,–,–,–,–,–,–,–,–,–,–,–,–,–,–,–,"IC50 (HeLa cells; preillumination 380 nm, 48 h, read-out: IC50 light (concentration that reduces cell viability by half)): ~12 µM; IC50 (HeLa cells; supplementary CSV, read-out: HeLa MTS IC50 dark): 12 µM; IC50 (HeLa cells; supplementary CSV, read-out: HeLa MTS IC50 light): 12 µM; difference in activity between dark and illuminated conditions over incubation time (human recombinant HDAC1 [4]): maintained over time; λcis (optimal wavelength trans to cis) [1, 9]: 380 nm; λtrans (optimal wavelength cis to trans) [1, 9]: 550 nm; wavelength of isomerization [2]: 365 nm; t1/2 (relaxation) ([2]; room temperature in buffer): 4.2 h; IC50(dark)/IC50(light) (human recombinant HDAC1 [5]; dark vs 365 or 380 nm (Table 2), fold): 18; IC50 (human recombinant HDAC1 [5]; dark, 1 h at room temperature (Table 2), read-out: IC50 dark): 0.96 µM; IC50 (human recombinant HDAC1 [5]; illumination 365 or 380 nm, 1 h at room temperature (Table 2), read-out: IC50 light): 0.052 µM; % cis at λcis ([6]; HPLC at isosbestic point (310–338 nm), 100 μM in DMSO after illumination with λcis (Table 1)): 78%; % trans at λtrans ([6]; HPLC at isosbestic point (310–338 nm), 100 μM in DMSO after illumination with λtrans (Table 1)): 85%"
"COc1cc(F)c(/N=N/c2c(F)cc(/C=C/C(=O)Nc3ccccc3N)cc2Cl)c(Cl)c1 [Compound 32c, (E)-N-(2-Aminophenyl)-3-(3-chloro-4-((E)-(2-chloro-6-fluoro-4-methoxyphenyl)diazenyl)-5-fluorophenyl)acrylamide]",–,–,>2.7,37 µM,inducing cell death only under light conditions,little or no effect,significantly reduced the viability,550 nm,442 nm,358 nm,455 nm,>2.6,3.9 µM,> 10 µM,little or no effect,significantly reduced the viability,68%,85%,little or no effect,significantly reduced the viability,"activity at the highest tested concentration in the dark (human recombinant HDAC1 [5]; 10 μM, dark): no or little activity; IC50 under illumination, in words (human recombinant HDAC1 [5]; continuous illumination): low micromolar range"
"COc1cc(F)c(/N=N/c2c(F)cc(C(=O)Nc3ccccc3N)cc2F)c(F)c1 [Compound 38a, (E)-N-(2-Aminophenyl)-4-((2,6-difluoro-4-methoxyphenyl)diazenyl)-3,5-difluorobenzamide]",–,> 100 µM,>3.4,29 µM,inducing cell death only under light conditions,little or no effect,significantly reduced the viability,550 nm,428 nm,348 nm,455 nm,≈5.9,1.7 µM,~10 µM,little or no effect,significantly reduced the viability,84%,67%,little or no effect,significantly reduced the viability,"IC50 (human recombinant HDAC1 [5]; supplementary CSV, read-out: HDAC1 IC50 dark): 10 µM"
